Counter-ions that a name gives are not always drawn.
Tests used:
[1] = test system: Male mice of the Std:ddY Strain; test: in vivo; conditions: p.o., mortality during 72 hours, Litchfield-Wilcoxon, 4320 min
From the text: (§1) EXPERIMENT EXAMPLE 6 (ACUTE TOXICITY)
(§2) Male mice of the Std:ddY Strain (20-25 g), which were fasted for one night before the initiation of the experiment, were used. Test compound hardly soluble in water was used in 3% suspension in gum arabic. Test compound taking a salt form was used in aqueous solution.

[2] = test system: Male mice of the Std:ddY Strain; test: Analgesic activity by the acetic acid-induced writhing method; type: in vivo; conditions: acetic acid i.p., counted for 10 min, n = 10
Description: Measurement of Analgesic Activity by the Acetic Acid-Induced Writhing Method
Male mice of the Std:ddY Strain (20-25 g), which were fasted for one night before the initiation of the experiment, were used. Test compound hardly soluble in water was used in 3% suspension in gum arabic. Test compound taking a salt form was used in aqueous solution. 0.7% acetic acid in 0.9% physiological saline solution was injected i.p. (10 ml/kg) at 2 hours and 50 minutes after the test compound was administered p.o. After 10 minutes, the number of writhing movements was counted for a period of 10 minutes.

[3] = test system: Male mice of the Std:ddY Strain; test: Analgesic activity by the phenylquinone-induced writhing method; type: in vivo; conditions: phenylquinone i.p., counted for 15 min, n = 8~10
Description: Measurement of Analgesic Activity by the Phenylquinone-Induced Writhing Method
Male mice of the Std:ddY Strain (20-25 g), which were fasted for one night before the initiation of the experiment, were used. Test compound hardly soluble in water was used in 3% suspension in gum arabic. Test compound taking a salt form was used in aqueous solution. 0.03% phenylquinone in 0.5% ethanol solution was injected i.p. (10 ml/kg) at 2 hours and 55 minutes after the compound was administered p.o. After 5 minutes, the number of writhings was counted for a period of 15 minutes.

[4] = test system: Male rats of the Wistar strain; test: Antiinflammatory activity by the carrageenin-induced hind paw edema; type: in vivo; conditions: 100 mg/kg p.o.
Description: Measurement of Antiinflammatory Activity by the Carrageenin-Induced Hind Paw Edema
Male rats of the Wistar strain (5 weeks old, 120-130 g), which were fasted for one night before the initiation of the experiment, were used. One hour after the oral administration of test compound, λ-carrageenin (1%) was injected s.c. under the plantar surface of the right hind paw. Thereafter, at one hour intervals for 6 hours, the volume of the paw was measured using an apparatus therefor. The results were described as a swelling rate (%) calculated using the following equation:
(R-L)×100/L=swelling rate (%)
R: the volume of the right hind paw
L: the volume of the left hind paw

[5] = test system: Male mice of the Std:ddY Strain; test: Analgesic activity by the tail-pressure method; type: in vivo
Description: Measurement of Analgesic Activity by the Tail-Pressure Method
Male mice of the Std:ddY Strain (20-25 g), which were fasted for one night before the initiation of the experiment, were used. Test compound hardly soluble in water was used in 3% suspension in gum arabic. Test compound taking a salt form was used in aqueous solution. Experiments were made with a tail-pressure apparatus. Before the administration of test compounds, the pain threshold was measured twice at intervals of 30 minutes and those mice indicating a pain threshold of 30 to 80 mmHg were selected and used. The pain threshold of each mouse was measured at 1, 3 and 5 hours after test compounds were administered p.o. The results were described as a percentage of the pain threshold after the treatment with test compound relative to that before the treatment with test compound.

[6] = test system: Male mice of the Std:ddY Strain; test: Analgesic activity by the hot plate method; type: in vivo; conditions: 52° C. plate
Description: Measurement of Analgesic Activity by the Hot Plate Method
Male mice of the Std:ddY Strain (20-25 g), which were fasted for one night before the initiation of the experiment, were used. Test compound hardly soluble in water was used in 3% suspension in gum arabic. Test compound taking a salt form was used in aqueous solution. Mice were placed on a cyrindric hot plate (diameter: 22 cm, height: 11 cm) made of copper which was fixed in a water bath adjusted to 52° C. so that each animal's four paws came into contact with the plate and the time taken to show the nociceptive response (jumping and licking) as an index of pain was measured. Mice showing response times above 25 seconds were excluded from the experiment. The analgesic activity of the compound was measured at 1, 3 and 5 hours after test compound was administered p.o. The results are shown in Table 4.

[7] = in vivo; set-up: species or system mice (Std:ddY); conditions: mouse, in vivo, po; mortality during 72 hours; Litchfield-Wilcoxon
From the text: as §1, §2

[8] = Property and solubility; type: physicochemical

| Compound | The number of writhings, mean ± S.E. ([2]; 3 mg/kg p.o.) | The number of writhings, mean ± S.E. ([2]; 10 mg/kg p.o.) | The number of writhings, mean ± S.E. ([2]; 30 mg/kg p.o.) | The number of writhings, mean ± S.E. ([3]; 3 mg/kg p.o.) | The number of writhings, mean ± S.E. ([3]; 10 mg/kg p.o.) | The number of writhings, mean ± S.E. ([3]; 30 mg/kg p.o.) | Swelling rate (%, mean ± S.E.) ([4]; 1 h after carrageenin) | Swelling rate (%, mean ± S.E.) ([4]; 2 h after carrageenin) | Swelling rate (%, mean ± S.E.) ([4]; 3 h after carrageenin) | Swelling rate (%, mean ± S.E.) ([4]; 4 h after carrageenin) | Swelling rate (%, mean ± S.E.) ([4]; 5 h after carrageenin) | Swelling rate (%, mean ± S.E.) ([4]; 6 h after carrageenin) | Pain threshold (%, mean ± S.E.), posttreatment relative to pretreatment ([5]; 100 mg/kg p.o., 1 h) | Pain threshold (%, mean ± S.E.), posttreatment relative to pretreatment ([5]; 100 mg/kg p.o., 3 h) | Pain threshold (%, mean ± S.E.), posttreatment relative to pretreatment ([5]; 100 mg/kg p.o., 5 h) | Pain threshold (%, mean ± S.E.), posttreatment relative to pretreatment ([5]; 300 mg/kg p.o., 1 h) | Pain threshold (%, mean ± S.E.), posttreatment relative to pretreatment ([5]; 300 mg/kg p.o., 3 h) | Pain threshold (%, mean ± S.E.), posttreatment relative to pretreatment ([5]; 300 mg/kg p.o., 5 h) | Pain threshold (s, mean ± S.E.) ([6]; 100 mg/kg p.o., 1 h) | Pain threshold (s, mean ± S.E.) ([6]; 100 mg/kg p.o., 3 h) | other results |
| --- | --- | --- | --- | --- | --- | --- | --- | --- | --- | --- | --- | --- | --- | --- | --- | --- | --- | --- | --- | --- | --- |
| CCN1C[C@]2(COC)[C@H](O)C[C@H](OC)[C@]34C1[C@H]([C@H](OC)[C@H]23)[C@]1(O)[C@H]2[C@@H](OC(=O)c3ccc(Cl)cc3)[C@](O)(C[C@H]24)[C@@H](OC)[C@@H]1O [14-O-p-chlorobenzoylaconine tartrate] | 17.8 ± 2.5 | 15.5 ± 2.3 | 10.7 ± 2.1 | 21.1 ± 2.4 | 18.3 ± 2.2 | 15.7 ± 2.7 | 16.0 ± 3.6% | 31.5 ± 3.1% | 47.3 ± 7.4% | 56.1 ± 2.0% | 49.6 ± 5.0% | 57.6 ± 9.0% | 102.6 ± 3.4% | 141.1 ± 8.3% | 128.0 ± 4.9% | 147.0 ± 7.8% | 240.4 ± 25.0% | 202.9 ± 19.7% | 17.3 ± 2.2 s | 26.7 ± 3.2 s | LD50 [1]: > 1000 mg/kg; Pain threshold (s, mean ± S.E.) ([6]; 100 mg/kg p.o., 5 h): 24.7 ± 2.1 s; Pain threshold (s, mean ± S.E.) ([6]; 300 mg/kg p.o., 1 h): 18.7 ± 1.7 s; Pain threshold (s, mean ± S.E.) ([6]; 300 mg/kg p.o., 3 h): 42.5 ± 11.0 s; Pain threshold (s, mean ± S.E.) ([6]; 300 mg/kg p.o., 5 h): 25.7 ± 2.7 s |
| CCN1CC2(COC)C(O)CC(OC)C34C5CC6(O)C(OC)C(O)C(C5C6OC(=O)c5ccccc5)C(C(OC)C23)C14 (stereo not drawn) [8-deoxy-14-O-benzoylaconine, reference compound] | 24.1 ± 2.7 | 21.9 ± 2.6 | 17.8 ± 2.5 | 27.1 ± 2.7 | 25.0 ± 3.0 | 24.0 ± 2.3 | 24.8 ± 9.2% | 36.3 ± 6.3% | 59.8 ± 6.3% | 63.5 ± 1.0% | 70.3 ± 3.9% | 72.2 ± 6.0% | 101.8 ± 14.1% | 100.2 ± 7.2% | 105.6 ± 9.2% | 115.6 ± 17.0% | 116.2 ± 12.0% | 110.2 ± 7.0% | 17.3 ± 1.7 s | 17.9 ± 2.1 s | LD50 at 72 h [7]: > 100 mg/kg; Pain threshold (s, mean ± S.E.) ([6]; 100 mg/kg p.o., 5 h): 18.9 ± 1.7 s; Pain threshold (s, mean ± S.E.) ([6]; 300 mg/kg p.o., 1 h): 18.6 ± 1.6 s; Pain threshold (s, mean ± S.E.) ([6]; 300 mg/kg p.o., 3 h): 24.0 ± 2.3 s; Pain threshold (s, mean ± S.E.) ([6]; 300 mg/kg p.o., 5 h): 19.6 ± 2.0 s |
| CCN1C[C@]2(COC)[C@H](O)C[C@H](OC)[C@]34C1[C@H]([C@H](OC)[C@H]23)[C@]1(O)[C@H]2[C@@H](OC(=O)c3ccc(Cl)cc3)[C@](O)(C[C@H]24)[C@@H](OC)[C@@H]1O [14-O-p-chlorobenzoylaconine] | 19.8 ± 2.5 | 17.3 ± 2.4 | 12.9 ± 3.7 | 20.1 ± 3.6 | 17.3 ± 2.8 | 15.9 ± 3.5 | 22.4 ± 8.0% | 28.0 ± 2.4% | 51.0 ± 2.8% | 58.6 ± 2.4% | 66.8 ± 3.7% | 72.9 ± 5.3% | 100.4 ± 2.5% | 129.6 ± 10.3% | 108.0 ± 6.0% | 120.0 ± 7.3% | 182.0 ± 21.7% | 166.0 ± 20.1% | 21.6 ± 2.2 s | 21.6 ± 2.0 s | LD50 ([1]; listed as compound of the formula (I)): ≥ 1,000 mg/kg; LD50 at 72 h [7]: > 1000 mg/kg; Solubility in organic solvents ([8]; ether, chloroform, benzene, methanol, ethanol, acetone, ethyl acetate, pyridine and dimethyl sulfoxide): Soluble; Solubility in hexane and water ([8]; hexane and water): Insoluble; Pain threshold (s, mean ± S.E.) ([6]; 100 mg/kg p.o., 5 h): 27.6 ± 0.9 s; Pain threshold (s, mean ± S.E.) ([6]; 300 mg/kg p.o., 1 h): 22.2 ± 1.5 s; Pain threshold (s, mean ± S.E.) ([6]; 300 mg/kg p.o., 3 h): 38.4 ± 3.3 s; Pain threshold (s, mean ± S.E.) ([6]; 300 mg/kg p.o., 5 h): 24.0 ± 1.6 s |

Reference: patent US5330983A, “14-O-p-chlorobenzoylaconine and analgesic/anti-inflammatory agent containing the same” (priority 1991, dated 1994)
